US9545120B2, “Method of lowering glycemic index of foods” (BASF SE, priority 2002, dated 2017)
Like-named read-outs stand apart in the source and are kept apart here.

Assays:
[1] = molecular target: T1, Alpha-glucosidase Type 1 from bakers yeast (Saccharomyces cerevisiae, UniProt P53341); test: Alpha-glucosidase assay; format: biochemical; conditions: for inhibition at 1600 µM: read-out: % inhibition of alpha-glucosidase at flavonoid concentration 1.6 mM (454 μg/mL); for remaining activity at 7.8 µg/mL / remaining activity at 15.6 µg/mL / remaining activity at 31.3 µg/mL / remaining activity at 62.5 µg/mL / remaining activity at 125 µg/mL / remaining activity at 250 µg/mL / remaining activity at 500 µg/mL: read-out: alpha-glucosidase % control; for inhibition at 7.8 µg/mL / inhibition at 15.6 µg/mL / inhibition at 31.3 µg/mL / inhibition at 62.5 µg/mL / inhibition at 125 µg/mL / inhibition at 250 µg/mL / inhibition at 500 µg/mL: read-out: alpha-glucosidase % inhibition
T1 construct: purchased Sigma
Protocol: Alpha-glucosidase Type 1 from bakers yeast, substrate (p-nitrophenyl-alpha-D-glucopyranoside) and a control inhibitor, castanospermine were purchased from Sigma. For the assay, enzyme dissolved in 50 mM acetate buffer, pH 4.5 was incubated for 30 min, at 37° C. in the presence of substrate and in the presence vs. absence of inhibitors (flavonoids or castanospermine at various concentrations). The reaction was carried out in 50 mM acetate buffer, pH 4.5. Final concentration of alpha glucosidase was 0.2 U/ml; final concentration of the substrate was 2 mM. Flavonoids concentrations ranged from 7.8 to 500 μg/ml and castanospermine was used at final concentration 1 μg/ml. The reaction was stopped by addition of 0.2 M Na2CO3 and absorbance was measured at 405 nm. Background absorbance (without enzyme) was subtracted for every flavonoid concentration used. The inhibitory activity was expressed as 100 minus relative absorbance difference between tested samples and controls.

[2] = molecular target: T2, Alpha-amylase from porcine pancreas (Sus scrofa, UniProt P00690); test: Alpha-amylase assay; format: biochemical; conditions: for inhibition at 1600 µM: read-out: % inhibition of alpha-amylase at flavonoid concentration 1.6 mM (454 μg/mL); for remaining activity at 11.7 µg/mL / remaining activity at 23.4 µg/mL / remaining activity at 46.9 µg/mL / remaining activity at 93.8 µg/mL / remaining activity at 187.5 µg/mL / remaining activity at 375 µg/mL / remaining activity at 750 µg/mL: read-out: alpha-amylase % control; for inhibition at 11.7 µg/mL / inhibition at 23.4 µg/mL / inhibition at 46.9 µg/mL / inhibition at 93.8 µg/mL / inhibition at 187.5 µg/mL / inhibition at 375 µg/mL / inhibition at 750 µg/mL: read-out: alpha-amylase % inhibition
T2 construct: purchased Sigma; host or cells: porcine pancreas
T2 sequence (P00690 16-511): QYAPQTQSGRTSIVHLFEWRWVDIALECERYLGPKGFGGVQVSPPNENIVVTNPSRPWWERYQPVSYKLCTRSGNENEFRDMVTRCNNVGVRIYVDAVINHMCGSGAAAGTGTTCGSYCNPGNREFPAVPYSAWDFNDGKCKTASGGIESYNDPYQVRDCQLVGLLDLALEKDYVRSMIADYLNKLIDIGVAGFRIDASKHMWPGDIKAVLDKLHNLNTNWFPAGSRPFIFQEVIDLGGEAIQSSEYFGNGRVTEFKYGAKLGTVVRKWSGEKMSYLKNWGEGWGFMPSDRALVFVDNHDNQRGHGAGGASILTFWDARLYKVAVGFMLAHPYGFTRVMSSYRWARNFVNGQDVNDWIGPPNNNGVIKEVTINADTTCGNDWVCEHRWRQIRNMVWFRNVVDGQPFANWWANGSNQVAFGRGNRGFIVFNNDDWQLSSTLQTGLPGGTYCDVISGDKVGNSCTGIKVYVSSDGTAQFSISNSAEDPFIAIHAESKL
Protocol: Alpha-amylase from porcine pancreas, alpha-glucosidase, glucoamylase and substrate (p-nitrophenyl-alpha-maltopentaoside) were purchased from Sigma. In the reaction, alpha-amylase (endo-type enzyme) hydrolysed the substrate into shorter chain glucosides and the auxiliary enzymes (exo-type enzymes) released the chromophore (p-nitrophenol) from the amylase-hydrolyzed malto-polysaccharides. For the assay, alpha-amylase (7.5 U/ml) was added to a substrate solution containing 1 mM p-nitrophenyl-alpha-maltopentaoside, 15 U/ml of alpha-glucosidase and 25 U/ml of glucoamylase in 50 mM HEPES buffer (pH 7.3) containing 3 mM CaCl2 and 40 mM NaCl. The reaction was carried out for 15 min at 37° C. in the presence vs. absence of flavonoids at concentrations ranged from 11.7 to 750 μg/ml. At the end of the incubation, 0.2 M borate, pH 9.8 was added to inactivate the enzymes and liberated p-nitrophenol was measured spectrophotometrically at 405 nm. The relative activity of alpha-amylase was calculated by subtracting reaction blanks containing the substrate, the two axillary enzymes and flavonoids at the same concentrations. The inhibitory activity was expressed as 100 minus relative absorbance difference between tested samples and controls.

T1 sequence (P53341 whole entry): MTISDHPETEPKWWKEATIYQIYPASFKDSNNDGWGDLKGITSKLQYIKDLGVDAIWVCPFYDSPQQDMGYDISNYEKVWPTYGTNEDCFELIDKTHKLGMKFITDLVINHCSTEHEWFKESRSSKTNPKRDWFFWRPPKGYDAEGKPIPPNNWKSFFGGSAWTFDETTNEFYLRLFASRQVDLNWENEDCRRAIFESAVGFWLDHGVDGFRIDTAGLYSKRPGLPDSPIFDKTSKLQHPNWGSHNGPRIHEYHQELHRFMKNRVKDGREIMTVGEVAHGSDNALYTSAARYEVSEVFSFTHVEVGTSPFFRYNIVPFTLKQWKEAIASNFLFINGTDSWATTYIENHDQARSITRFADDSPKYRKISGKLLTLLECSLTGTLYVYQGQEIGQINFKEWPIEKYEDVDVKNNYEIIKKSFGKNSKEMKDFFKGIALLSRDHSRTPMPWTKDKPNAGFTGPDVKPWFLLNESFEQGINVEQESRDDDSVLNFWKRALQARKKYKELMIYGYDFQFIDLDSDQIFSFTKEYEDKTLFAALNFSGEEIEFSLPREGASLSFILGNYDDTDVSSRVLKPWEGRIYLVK

Row | SMILES | IC50 [1] | inhibition at 1600 µM [1] | remaining activity at 7.8 µg/mL [1] | remaining activity at 31.3 µg/mL [1] | remaining activity at 62.5 µg/mL [1] | remaining activity at 125 µg/mL [1] | remaining activity at 250 µg/mL [1] | remaining activity at 500 µg/mL [1] | inhibition at 7.8 µg/mL [1] | inhibition at 31.3 µg/mL [1] | inhibition at 62.5 µg/mL [1] | inhibition at 125 µg/mL [1] | inhibition at 250 µg/mL [1] | inhibition at 500 µg/mL [1] | inhibition at 1600 µM [2] | remaining activity at 15.6 µg/mL ([1]; flavonoid conc. 15.6 μg/mL) | inhibition at 15.6 µg/mL ([1]; flavonoid conc. 15.6 μg/mL) | remaining activity at 11.7 µg/mL ([2]; flavonoid conc. 11.7 μg/ml) | inhibition at 11.7 µg/mL ([2]; flavonoid conc. 11.7 μg/ml) | remaining activity at 23.4 µg/mL ([2]; flavonoid conc. 23.4 μg/ml) | other results
1 | COc1cc(-c2cc(=O)c3c(O)cc(O)cc3o2)cc(OC)c1O [Tricin, tricin] | 36.3 µM | 100% | 97.7% | 15.6% | 6.4% | 0% | 0% | 0% | 0.3% | 84.4% | 93.6% | 100% | 100% | 100% | 100% |  |  |  |  |  | remaining activity at 15.6 µg/mL [1]: 26.4%; inhibition at 15.6 µg/mL [1]: 73.6%; IC50 [2]: 30 µM; remaining activity at 11.7 µg/mL [2]: 40.9%; remaining activity at 23.4 µg/mL [2]: 18.2%; remaining activity at 46.9 µg/mL [2]: 0%; remaining activity at 93.8 µg/mL [2]: 0%; remaining activity at 187.5 µg/mL [2]: 0%; remaining activity at 375 µg/mL [2]: 0%; remaining activity at 750 µg/mL [2]: 0%; inhibition at 11.7 µg/mL [2]: 59.1%; inhibition at 23.4 µg/mL [2]: 81.8%; inhibition at 46.9 µg/mL [2]: 100%; inhibition at 93.8 µg/mL [2]: 100%; inhibition at 187.5 µg/mL [2]: 100%; inhibition at 375 µg/mL [2]: 100%; inhibition at 750 µg/mL [2]: 100%
2 | O=c1cc(-c2ccc(O)c(O)c2)oc2cc(O)cc(O)c12 [Luteolin, luteolin] |  | 96% | 81.4% | 65.8% | 45.7% | 17.9% | 19.1% | 0% | 18.6% | 34.2% | 54.3% | 82.1% | 80.9% | 100% | 100% | 60.2% | 39.8% | 0% | 100% | 0% | IC50 ([1]; read-out: IC50 concentration, alpha-glucosidase (converted)): 180 µM; inhibition at 23.4 µg/mL ([2]; flavonoid conc. 23.4 μg/ml): 100%; remaining activity at 46.9 µg/mL ([2]; flavonoid conc. 46.9 μg/ml): 0%; inhibition at 46.9 µg/mL ([2]; flavonoid conc. 46.9 μg/ml): 100%; remaining activity at 93.8 µg/mL ([2]; flavonoid conc. 93.8 μg/ml): 0%; inhibition at 93.8 µg/mL ([2]; flavonoid conc. 93.8 μg/ml): 100%; remaining activity at 187.5 µg/mL ([2]; flavonoid conc. 187.5 μg/ml): 0%; inhibition at 187.5 µg/mL ([2]; flavonoid conc. 187.5 μg/ml): 100%; remaining activity at 375 µg/mL ([2]; flavonoid conc. 375.0 μg/ml): 0%; inhibition at 375 µg/mL ([2]; flavonoid conc. 375.0 μg/ml): 100%; remaining activity at 750 µg/mL ([2]; flavonoid conc. 750.0 μg/ml): 0%; inhibition at 750 µg/mL ([2]; flavonoid conc. 750.0 μg/ml): 100%; inhibition of alpha-amylase at the lowest concentration tested ([2]; lowest concentration tested (11.7 μg/ml)): inhibiting the enzyme completely; IC50 ([2]; read-out: IC50 concentration, alpha-amylase (converted)): 20.3 µM
3 | O=c1cc(-c2ccc(O)cc2)oc2cc(O)cc(O)c12 [Apigenin, apigenin] | 220 µM | 100% | 73.5% | 68.4% | 50.4% | 29.5% | 0% | 0% | 26.5% | 31.6% | 49.6% | 70.5% | 100% | 100% | 100% | 74.3% | 25.7% | 81% | 19% | 0% | inhibition at 23.4 µg/mL ([2]; flavonoid conc. 23.4 μg/ml): 100%; remaining activity at 46.9 µg/mL ([2]; flavonoid conc. 46.9 μg/ml): 0%; inhibition at 46.9 µg/mL ([2]; flavonoid conc. 46.9 μg/ml): 100%; remaining activity at 93.8 µg/mL ([2]; flavonoid conc. 93.8 μg/ml): 0%; inhibition at 93.8 µg/mL ([2]; flavonoid conc. 93.8 μg/ml): 100%; remaining activity at 187.5 µg/mL ([2]; flavonoid conc. 187.5 μg/ml): 0%; inhibition at 187.5 µg/mL ([2]; flavonoid conc. 187.5 μg/ml): 100%; remaining activity at 375 µg/mL ([2]; flavonoid conc. 375.0 μg/ml): 0%; inhibition at 375 µg/mL ([2]; flavonoid conc. 375.0 μg/ml): 100%; remaining activity at 750 µg/mL ([2]; flavonoid conc. 750.0 μg/ml): 0%; inhibition at 750 µg/mL ([2]; flavonoid conc. 750.0 μg/ml): 100%
4 | O[C@H]1[C@H](O)[C@@H](O)CN2CC[C@H](O)[C@H]12 [castanospermine, reference compound] |  |  |  |  |  |  |  |  |  |  |  |  |  |  |  |  |  |  |  |  | activity of alpha-glucosidase reduced by ([1]; 1 μg/ml, control inhibitor): 32%
